In publication PMC6271771, “4-Amino-substituted Benzenesulfonamides as Inhibitors of Human Carbonic Anhydrases” (Molecules, 2014):
Several values for one entry are separate records, joined by “and”; a condition that tells them apart may be missing. Equal values may be shown once. Read-outs that look alike come from different tables or passages of the source.

How the values were obtained:
[1] = molecular target: T1, CA VII (Homo sapiens, UniProt P43166); assay: Fluorescent thermal shift assay (FTSA), CA VII; assay type: binding
T1 construct: made in house
T1 sequence (P43166 whole entry): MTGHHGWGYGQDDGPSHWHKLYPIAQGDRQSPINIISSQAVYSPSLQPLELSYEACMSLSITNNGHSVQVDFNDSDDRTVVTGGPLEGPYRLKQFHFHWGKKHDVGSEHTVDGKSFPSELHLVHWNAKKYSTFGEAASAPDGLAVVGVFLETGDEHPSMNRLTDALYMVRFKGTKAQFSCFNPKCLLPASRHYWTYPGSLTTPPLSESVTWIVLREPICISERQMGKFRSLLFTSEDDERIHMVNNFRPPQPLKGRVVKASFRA

[2] = molecular target: T2, CA VI (Homo sapiens, UniProt P23280); parameters: method as in PMID 24300919, PMID 17228881; conditions: read-out: inhibition constant Ki for CA VI; previously reported; cited from earlier work
T2 construct: made in house
T2 sequence (P23280 18-308): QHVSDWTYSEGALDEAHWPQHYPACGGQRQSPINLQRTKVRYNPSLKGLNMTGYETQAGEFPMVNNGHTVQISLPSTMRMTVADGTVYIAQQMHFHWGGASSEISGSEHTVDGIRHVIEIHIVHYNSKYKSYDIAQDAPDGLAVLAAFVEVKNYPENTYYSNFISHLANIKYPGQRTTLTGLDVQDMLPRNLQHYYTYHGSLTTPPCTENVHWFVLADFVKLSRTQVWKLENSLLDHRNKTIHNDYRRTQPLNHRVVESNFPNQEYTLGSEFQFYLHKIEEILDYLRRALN

[3] = molecular target: T2, CA VI; parameters: method as in Murakami and Sly 35; conditions: read-out: Ki for CA VI; ref Murakami and Sly 35; cited from earlier work
[4] = molecular target: T2, CA VI; assay: Fluorescent thermal shift assay (FTSA), CA VI; assay type: binding
[5] = molecular target: T3, CA I (Homo sapiens, UniProt P00915); assay: Fluorescent thermal shift assay (FTSA), CA I; assay type: binding
T3 construct: made in house
T3 sequence (P00915 whole entry): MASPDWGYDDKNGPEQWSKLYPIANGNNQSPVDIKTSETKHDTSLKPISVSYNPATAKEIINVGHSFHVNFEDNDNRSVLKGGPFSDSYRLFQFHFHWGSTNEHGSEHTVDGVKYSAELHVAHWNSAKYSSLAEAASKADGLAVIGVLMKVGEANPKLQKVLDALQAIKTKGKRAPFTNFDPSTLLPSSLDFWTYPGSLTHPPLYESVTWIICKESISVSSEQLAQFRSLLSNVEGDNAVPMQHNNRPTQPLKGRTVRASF

[6] = molecular target: T4, CA XIII (Homo sapiens, UniProt Q8N1Q1); assay: Fluorescent thermal shift assay (FTSA), CA XIII; assay type: binding
T4 construct: made in house
T4 sequence (Q8N1Q1 whole entry): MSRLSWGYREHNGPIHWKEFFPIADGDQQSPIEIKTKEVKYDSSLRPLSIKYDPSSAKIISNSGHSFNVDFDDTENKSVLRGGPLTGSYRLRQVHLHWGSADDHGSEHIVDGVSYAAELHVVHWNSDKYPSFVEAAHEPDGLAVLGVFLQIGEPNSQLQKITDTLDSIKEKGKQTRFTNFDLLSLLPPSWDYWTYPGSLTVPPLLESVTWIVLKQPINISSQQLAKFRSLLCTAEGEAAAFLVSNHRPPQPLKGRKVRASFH

[7] = molecular target: T5, CA II (Homo sapiens, UniProt P00918); assay: Fluorescent thermal shift assay (FTSA), CA II; assay type: binding; conditions: pH 7.0, 37 °C
T5 construct: made in house

[8] = molecular target: T5, CA II; assay: Isothermal titration calorimetry (ITC), CA II; assay type: binding; conditions: for K (ITC titration of CA II) / ΔH (ITC titration of CA II): 37 °C, 50 mM phosphate buffer (pH 7.0), 100 mM NaCl, 2% DMSO, Figure 2
Method: (§1) The synthesized compounds could be arranged into two groups. The first group of compounds is the N-aryl-β-alanine derivatives containing the primary sulfonamide group 3–25 (except in the compound 4 which is a tertiary sulfonamide) and the second group of compounds—diazobenzenesulfonamides 26–33. Compounds such as benzenesulfonamide (BSA) and acetazolamide (AZM) were used as controls. The binding affinity of these compounds to six CA isoforms I, II, VI, VII, XII, and XIII was determined by the fluorescent thermal shift assay (FTSA) and confirmed for two key compounds 18 and 31 by the isothermal titration calorimetry (ITC).
(§2) Isothermal titration calorimetry (ITC) experiments were performed using VP-ITC instrument (Microcal, Inc., Northampton, MA, USA) with 5–10 µM protein solution in the cell and 50–100 µM of the ligand solution in the syringe. A typical experiment consisted of 25 injections (10 µL each) within 3 min intervals. Experiments were performed at 37 °C in a 50 mM sodium phosphate buffer containing 100 mM NaCl at pH 7.0, with a final DMSO concentration of 2%, equal in the syringe and the cell.

[9] = molecular target: T4, CA XIII; assay: Isothermal titration calorimetry (ITC), CA XIII; assay type: binding
Method: as §1, §2

[10] = molecular target: T1, CA VII; assay: Isothermal titration calorimetry (ITC), CA VII; assay type: binding
Method: as §1, §2

[11] = molecular target: T3, CA I; assay: Isothermal titration calorimetry (ITC), CA I; assay type: binding
Method: as §1, §2

[12] = molecular target: T6, CA XII (Homo sapiens, UniProt O43570); assay: Fluorescent thermal shift assay (FTSA), CA XII; assay type: binding
T6 construct: made in house
T6 sequence (O43570 30-289 limits assumed): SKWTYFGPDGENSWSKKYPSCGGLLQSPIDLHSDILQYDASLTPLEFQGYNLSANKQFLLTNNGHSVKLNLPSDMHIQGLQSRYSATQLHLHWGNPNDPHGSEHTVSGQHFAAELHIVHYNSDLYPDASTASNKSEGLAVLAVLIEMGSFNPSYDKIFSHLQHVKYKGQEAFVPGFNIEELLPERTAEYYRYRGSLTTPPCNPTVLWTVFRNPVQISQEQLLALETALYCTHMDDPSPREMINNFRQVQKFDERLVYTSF

[13] = molecular target: T6, CA XII; assay: Isothermal titration calorimetry (ITC), CA XII; assay type: binding; conditions: pH 7.0, 37 °C, read-out: Kd for CA XII by isothermal titration calorimetry (values in the brackets)
Method: as §1, §2

[14] = FTSA, pH 7.0, 37 °C, read-out: Compound Dissociation Constants Kd for CA XIII

Compound: Nc1ccc(S(N)(=O)=O)cc1 [Compound 1, 4-Aminobenzene-1-sulfonamide, reference compound]
- Kd [1]: 50000 nM
- Ki [2]: 900 nM
- Ki [3]: 9900 nM
- Kd [4]: 56000 nM
- difference between own Kd and Ki of Murakami and Sly, CA I ([5]; Kd (FTSA) versus Ki of ref 35): 2 times
- Kd [6, 14]: 100000 nM

Compound: Cc1cc(C)n(C(=O)CCNc2ccc(S(N)(=O)=O)cc2)n1 [Compound 18, 4-{[3-(3,5-Dimethyl-1H-pyrazol-1-yl)-3-oxopropyl]amino}benzene-1-sulfonamide]
- Kd ([7]; read-out: Compound Dissociation Constants Kd for CA II): 670 nM and 667 nM
- K (ITC titration of CA II) [8]: 2.2E6
- ΔH (ITC titration of CA II) [8]: -9320
- Kd ([8]; ITC, pH 7.0, 37 °C, read-out: Kd for CA II by isothermal titration calorimetry (values in the brackets)): 454 nM
- Kd ([9]; ITC, pH 7.0, 37 °C, read-out: Kd for CA XIII by isothermal titration calorimetry (values in the brackets)): 1000 nM
- Kd ([1]; FTSA, pH 7.0, 37 °C, read-out: Compound Dissociation Constants Kd for CA VII): 3330 nM
- Kd ([10]; ITC, pH 7.0, 37 °C, read-out: Kd for CA VII by isothermal titration calorimetry (values in the brackets)): 900 nM
- Kd ([4]; FTSA, pH 7.0, 37 °C, read-out: Compound Dissociation Constants Kd for CA VI): 27000 nM
- Kd ([11]; ITC, pH 7.0, 37 °C, read-out: Kd for CA I by isothermal titration calorimetry (values in the brackets)): 750 nM
- Kd ([5]; FTSA, pH 7.0, 37 °C, read-out: Compound Dissociation Constants Kd for CA I): 1670 nM
- Kd [6, 14]: 4000 nM
- Kd ([12]; FTSA, pH 7.0, 37 °C, read-out: Compound Dissociation Constants Kd for CA XII): 14300 nM

Compound: NS(=O)(=O)c1ccc(/N=N/N2CCCCCC2)cc1 [Compound 31]
- Kd ([7]; Compound Dissociation Constants Kd for CA II): 43.5 nM
- Kd [8]: 40 nM
- K (ITC titration of CA II) [8]: 2.5E7
- ΔH (ITC titration of CA II) [8]: -9640
- Kd [9]: 78 nM
- Kd [1]: 125 nM
- Kd [10]: 192 nM
- Kd [4]: 14300 nM
- Kd [11]: 22 nM
- Kd [5]: 6 nM
- Kd [6]: 22.2 nM
- Kd [13]: 220 nM
- Kd [12]: 670 nM
